Patent US8540983B2, “Debriding composition from bromelain and methods of production thereof” (MediWound Ltd., priority 2004, dated 2013)

System: Debrase esterolytic activity
Assay: Esterolytic activity of Debrase (CLN substrate) and its inhibition by bromelain HPLC fractions
Assay type: biochemical, Ananas comosus
Settings: Debrase + 1 mM Iodoacetamide, pH 4.6
Experimental: Bromelain powder (2.5 g) was suspended in 10 ml of 0.1M potassium phosphate buffer pH 6.1 saturated with phenyl mercury acetate for 10 min. After centrifugation for 10 min (3500 rpm), one ml of the supernatant was applied to gel filtration chromatography on a HiLoad 16/60 Superdex 75 HPLC preparation grade column, equilibrated and eluted with the same buffer. Fractions of 5 ml were collected 30 minutes after sample application. For each of the eluted fractions, three parameters were measured: (i) absorbance at 280 nm (A280); (ii) esterolytic activity; and (iii) inhibition of Debrase esterolytic activity.
The esterolytic activity of the bromelain fractions was assayed spectrophotometrically at pH 4.6 using the chromogenic substrate p-nitrophenyl Na-benzyloxycarbonyl-L-lysinate (CLN) as follows:
One milliliter of sodium acetated buffer (10 mM) containing 0.1 M KCl and 1 mM L-cysteine, pH 4.6 was placed in a plastic cuvette at 25° C. One hundred μl of the eluted fraction (at a concentration of 2.5 mg/ml) were added. The solution was incubated for 2 min and then 50 μl of CLN solution (2.5 mM in acetonitrile 10% water) were added. The cuvette was mixed and the increase in absorbance at 317 nm was monitored for 5 minutes. The spontaneous hydrolysis of the substrate was monitored in the presence of buffer only instead of the eluted fractions.

Structure (SMILES): NC(=O)CI [Iodoacetamide]
- % Inhibition: 37.0%
- Proteolytic activity (esterolytic activity of Debrase): 593
